Results taken from paper PMC4920673, “Nitroimidazole carboxamides as antiparasitic agents targeting Giardia lamblia, Entamoeba histolytica and Trichomonas vaginalis” (European Journal of Medicinal Chemistry, 2016).
Converted amounts (≈) assume the structure as drawn. Read-outs that look alike come from different tables or passages of the source.

Assays:
[1] = tested on: C. difficile 630 (ATCC BAA-1382); test: Broth microdilution MIC assay, C. difficile 630; assay type: cell-based, Clostridium difficile; details: Clostridioides difficile, ATCCBAA1382
How it was run: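 Compounds two-fold serially diluted against overnight anaerobic BHIS cultures of the strain, following CLSI methods modified in broth and inoculum for C. difficile. Plates incubated 24 h at 37 °C; MIC is the lowest concentration without visible growth, median reported with range.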

[2] = Resazurin cytotoxicity assay, HEK293; assay type: cell-based, Human; details: human, 24 h, highest concentration 100 μM, n = 3, read-out: CC50 HEK 293
How it was run: (§1)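 Cells pre-cultured 24 h in DMEM/10% FBS at 37 °C, then exposed 24 h to compound dilution series (top 100 μM). Viability by 5 μM resazurin, 2 h, fluorescence 560/590 nm; 1% Triton X-100 as lysis control; CC50 from curve fitting.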

giardiasis = details: cited from earlier work
[3] = Metabolic stability in liver microsomes; assay type: in vitro ADME, human
Protocol: Metabolic stability studies were performed with human liver microsomes (HMMC-PL, Lot# PL050B-B, Thermo Fisher Scientific USA) with test compound (5 μM) degradation monitored by LC/MS/MS analysis. Stock solutions (2.5 mM) of the test compounds were prepared in DMSO. […] The reaction was initiated by addition of NADPH solution (cofactor) in potassium phosphate buffer (final concentration 1 mM). Aliquots (180 μL) from the reaction mixture were withdrawn (t = 0, 10, 30, 60 and 120 min) and quenched by adding ice-cold stop solution (540 μL) comprising 0.5 μM carbutamide internal standard in acetonitrile: methanol: formic acid (1: 1: 0.001). Reaction samples were incubated at 4 °C for 30 min, centrifuged at 14,000 × g for 8 min and the clear supernatant was transferred to a vial for LC/MS/MS analysis. The percentage of compound metabolised at different times was calculated as a percentage of the levels at the start of incubation (t = 0 min sample). Matrix blank was also prepared as a control. […] LC/MS/MS parameters are detailed in the supplementary information (Supplementary Table 1).

[4] = tested on: C. difficile NAP1/027 (ATCC BAA-1803); test: Broth microdilution MIC assay, C. difficile NAP1/027; assay type: cell-based, Clostridium difficile; details: Clostridioides difficile, ATCCBAA1803; strain NAP1/027
How it was run: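 Strains grown anaerobically in BHIS at 37 °C overnight; compounds two-fold serially diluted (64 to 0.03 μg/mL) in pre-reduced medium under anaerobic atmosphere (5% H2, 10% CO2, 85% N2). Plates incubated 24 h at 37 °C; MIC taken as lowest concentration without visible growth, median of replicates reported.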

[5] = Plasma protein binding by ultrafiltration; assay type: in vitro ADME; details: human; for fraction unbound at 0.5 h, 5 µM: read-out: Plasma protein binding (% bound) (converted)
Protocol: Plasma Protein Binding (PPB) was performed using an Ultrafiltration method, [28]. […] Samples were incubated at […] for 30 min, then centrifuged at 14,000 × g for 8 min, with the clear supernatant transferred to a vial for LC/MS/MS analysis. […] The fraction of unbound compound was calculated by determining the concentration of the filtered sample and the concentration of unfiltered sample. […] LC/MS/MS parameters are detailed in the supplementary information (Supplementary Table 1).

G. lamblia 713M3 (MtzR) = test: ATP-bioluminescence growth/survival EC50 assay, G. lamblia 713M3; assay type: cell-based, Giardia lamblia; details: Giardia duodenalis
Protocol: (§2) Compounds were screened for antiparasitic activity using an ATP-bioluminescence based assay for cell growth and survival, [24]. […] Viable cell numbers were determined in triplicate using the CellTiter-Glo Luminescent Cell Viability Assay.

T. vaginalis F1623 = test: ATP-bioluminescence growth/survival EC50 assay, T. vaginalis; assay type: cell-based, Trichomonas vaginalis; details: Trichomonas vaginalis
Protocol: as §2

G. lamblia WB (MtzS) = test: ATP-bioluminescence growth/survival EC50 assay, G. lamblia WB; details: for EC50: Giardia duodenalis; for S.I (CC50/EC50): average cytotoxicity against HEK293 and HepG2 / G. lamblia WB activity
Protocol: as §2

[6] = tested on: G. lamblia WB trophozoites; test: Light microscopy of G. lamblia WB growth and survival; assay type: cell-based, Giardia lamblia; details: for Parasite cell growth by microscopy: 3 × EC50 (metronidazole 18 μM, 12a 1.5 μM), 48 h, relative to vehicle control; for Morphology of treated G. lamblia: 3 × EC50, 48 h, phase contrast
Protocol: The effect of compounds on G. lamblia WB growth and survival was examined by light microscopy. Briefly, stock compounds were diluted in DMSO (100%) to give 400 × final concentration of compound. […]. Assay plates were incubated for 48 h at 37 °C in the GasPak™ EZ Anaerobe Gas Generating Pouch Systems (VWR, West Chester, PA) to maintain anaerobic conditions throughout the incubation period. The assays were performed in triplicate (3 wells/treatment). […]

Giardia = tested on: Giardia; parameters: method as in PMID 23403423; details: cited from earlier work
[7] = cited from earlier work
E. histolytica HM1:IMSS = test: ATP-bioluminescence growth/survival EC50 assay, E. histolytica; assay type: cell-based, Entamoeba histolytica; details: Entamoeba histolytica
Protocol: as §2

[8] = Resazurin cytotoxicity assay, HepG2; assay type: cell-based, Human; details: human, 24 h, highest concentration 100 μM, n = 3, read-out: CC50 Hep G2
How it was run: as §1

T. vaginalis = tested on: T. vaginalis; parameters: method as in earlier work; details: cited from earlier work
H. meleagridis = tested on: H. meleagridis; parameters: method as in earlier work; details: turkey; cited from earlier work
[9] = strain 630, MtzS, median of n = 4, read-out: MIC C. difficile 630
[10] = read-out: EC50 G. lamblia 713M3, MtzR strain 713M3, minimum n = 3
[11] = read-out: pEC50 ± SE G. lamblia 713M3, MtzR strain 713M3 (converted)
[12] = read-out: EC50 G. lamblia WB, MtzS strain WB, minimum n = 3
[13] = read-out: pEC50 ± SE G. lamblia WB, MtzS strain WB (converted)
[14] = 5 μM, human liver microsomes 1 mg/mL, NADPH
[15] = pooled human plasma (100%), 5 μM, 100% human plasma, 37 °C, 30 min, ultrafiltration
[16] = read-out: EC50 T. vaginalis F1623, MtzS, minimum n = 3
[17] = read-out: pEC50 ± SE T. vaginalis F1623, MtzS (converted)
[18] = read-out: EC50 E. histolytica HM1:IMSS
[19] = read-out: pEC50 ± SE E. histolytica HM1:IMSS (converted)

| SMILES | MIC [1, 9] | CC50 at 24 h ([2]; HEK293 cells) | MIC [4] | EC50 (G. lamblia 713M3 (MtzR); [10]) | EC50 (G. lamblia 713M3 (MtzR); [11]) | EC50 (G. lamblia WB (MtzS); [12]) | EC50 (G. lamblia WB (MtzS); [13]) | CC50 at 24 h ([8]; HepG2 cells) | Microsome stability (% remaining at 2 h) [3, 14] | fraction unbound at 0.5 h, 5 µM [5, 15] | EC50 (T. vaginalis F1623; [16]) | EC50 (T. vaginalis F1623; [17]) | S.I (CC50/EC50) (G. lamblia WB (MtzS)) | EC50 (E. histolytica HM1:IMSS; [18]) | EC50 (E. histolytica HM1:IMSS; [19]) | other results |
| --- | --- | --- | --- | --- | --- | --- | --- | --- | --- | --- | --- | --- | --- | --- | --- | --- |
| Cc1ncc([N+](=O)[O-])n1CCO [Compound 1, Metronidazole, reference compound] | 0.5 µg/mL (≈ 2.92 µM) | > 100 µM | 0.5 µg/mL (≈ 2.92 µM) | 18 µM | 18.2 µM | 6.1 µM | 6.17 µM | > 100 µM |  |  |  |  |  |  |  | MIC ([1]; 630 and NAP1/027 strains together or strain not given, read-out: MIC C. difficile): 0.5 µg/mL (≈ 2.92 µM); Treatment failure in giardiasis cases (giardiasis): up to 20%; Microsome stability (% remaining at 2 h) ([3]; human, microsomes): 100 % remaining; fraction unbound at 30 min, 5 μM ([5]; plasma, Plasma protein binding (% bound)): > 0.95; EC50 (T. vaginalis F1623; MtzS, minimum n = 3, read-out: EC50 T. vaginalis F1623): 0.8 µM; EC50 (T. vaginalis F1623; MtzS, read-out: pEC50 ± SE T. vaginalis F1623 (converted)): 0.794 µM; EC50 (G. lamblia WB (MtzS); read-out: EC50 against G. lamblia strains, G. lamblia strains including metronidazole-resistant strains, stated together): 6.1 to 18 µM; Parasite cell growth by microscopy [6]: inhibited; Morphology of treated G. lamblia [6]: remained similar to the vehicle control; Effect on Giardia cells in prior study (Giardia): slowed the rate of oscillation of the Giardia flagella; Plasma protein binding [7]: mostly unbound; EC50 (E. histolytica HM1:IMSS; MtzS, minimum n = 3, read-out: EC50 E. histolytica HM1:IMSS): 5 µM; EC50 (E. histolytica HM1:IMSS; MtzS, read-out: pEC50 ± SE E. histolytica HM1:IMSS (converted)): 5.01 µM |
| CCS(=O)(=O)CCn1c([N+](=O)[O-])cnc1C [Compound 2, tinidazole] |  |  |  |  |  |  |  |  |  |  |  |  |  |  |  | Plasma protein binding [7]: mostly unbound |
| Cn1c([N+](=O)[O-])cnc1C(=O)NCc1ccc(F)cc1 [Compound 8a, N-(4-fluorobenzyl)-1-methyl-5-nitro-1H-imidazole-2-carboxamide] | > 64 µg/mL | > 100 µM | > 64 µg/mL | 13 µM | 12.9 µM | 3.5 µM | 3.47 µM | > 100 µM | 88 % remaining | 0.05 | 5.2 µM | 5.25 µM | >29 | 9.7 µM | 9.77 µM | fraction unbound at 30 min, 5 μM ([5]; pooled human plasma (100%), 5 μM, 100% human plasma, 37 °C, 30 min, ultrafiltration, read-out: Plasma protein binding (% bound)): ≤ 0.06 |
| CN(C)C(=O)c1ncc([N+](=O)[O-])n1C [Compound 8g, N,N,1-trimethyl-5-nitro-1H-imidazole-2-carboxamide] | 32 µg/mL (≈ 161 µM) | > 100 µM | 64 µg/mL (≈ 323 µM) | > 20 µM | > 20 µM | 2.4 µM | 2.4 µM | > 100 µM |  |  | 1.3 µM | 1.29 µM | >42 | 14 µM | 14.1 µM | Activity in in vivo mouse model of T. vaginalis infection (T. vaginalis): activity; Activity in in vivo model of H. meleagridis infection (H. meleagridis): activity |
| Cn1c([N+](=O)[O-])cnc1C(=O)N1CCOCC1 [Compound 8h, (1-methyl-5-nitro-1H-imidazol-2-yl)(morpholino)methanone] | 32 µg/mL (≈ 133 µM) | > 100 µM | 32 µg/mL (≈ 133 µM) | 11 µM | 11.2 µM | 1.6 µM | 1.58 µM | > 100 µM | 97 % remaining | 0.91 | 0.6 µM | 0.575 µM | >63 | 14 µM | 14.1 µM | Activity in in vivo mouse model of T. vaginalis infection (T. vaginalis): activity; Activity in in vivo model of H. meleagridis infection (H. meleagridis): activity |
| O=C(NCc1ccc(F)cc1)c1ncc([N+](=O)[O-])[nH]1 [Compound 12a, N-(4-fluorobenzyl)-5-nitro-1H-imidazole-2-carboxamide] | 4 µg/mL (≈ 15.1 µM) |  | 4 µg/mL (≈ 15.1 µM) | 2.4 µM | 2.34 µM | 0.5 µM | 0.525 µM |  | 94 % remaining |  | 2.3 µM | 2.34 µM |  | 3.6 µM | 3.63 µM | CC50 at 24 h [2]: > 100 µM; Parasite cell growth by microscopy [6]: inhibited; Morphology of treated G. lamblia [6]: altered; CC50 at 24 h [8]: > 100 µM |
| O=C(c1ncc([N+](=O)[O-])[nH]1)N1CCOCC1 [Compound 12h, Morpholino(5-nitro-1H-imidazol-2-yl)methanone] | 2 µg/mL (≈ 8.84 µM) | > 100 µM | 2 µg/mL (≈ 8.84 µM) | > 20 µM | > 20 µM | 8.8 µM | 8.71 µM | > 100 µM | 100 % remaining | 0.22 | 2.9 µM | 2.88 µM | >11 | 5.1 µM | 5.13 µM |  |
| CCOC(=O)c1nc([N+](=O)[O-])cn1Cc1ccc(OC(F)(F)F)cc1 [Compound 14c, Ethyl 4-nitro-1-(4-(trifluoromethoxy)benzyl)-1H-imidazole-2-carboxylate] | > 64 µg/mL |  | > 64 µg/mL |  |  | 6 µM | 6.03 µM |  |  |  |  |  | >17 | 51 µM | 51.3 µM | CC50 at 24 h [2]: > 100 µM; melting point: 112 °C; CC50 at 24 h [8]: > 100 µM |
| CC(=O)OC[C@H]1O[C@@H]([S-])[C@H](OC(C)=O)[C@@H](OC(C)=O)[C@@H]1OC(C)=O.CCP(CC)CC.[Au+] [auranofin] |  |  |  |  |  |  |  |  |  |  |  |  |  |  |  | Effect on Giardia cells in prior study (Giardia): caused cell blebbing |
| O=C(Nc1ncc([N+](=O)[O-])s1)c1ccccc1O [tizoxanide] |  |  |  |  |  |  |  |  |  |  |  |  |  |  |  | Plasma protein binding ([7]; active metabolite of nitazoxanide): highly plasma protein bound |
